Reference: patent US8101766B2, “Crystalline form of a biphenyl compound” (Theravance, Inc., priority 2004, dated 2012)

Legend:
hM2 receptor = target: T1, hM2 receptor (Homo sapiens, UniProt P08172); assay: Blockade of oxotremorine-stimulated [35S]GTPγS binding in CHO-K1 cells expressing the hM2 receptor; format: biochemical
T1 construct: expressed in transfected cells
T1 sequence (P08172 1-466): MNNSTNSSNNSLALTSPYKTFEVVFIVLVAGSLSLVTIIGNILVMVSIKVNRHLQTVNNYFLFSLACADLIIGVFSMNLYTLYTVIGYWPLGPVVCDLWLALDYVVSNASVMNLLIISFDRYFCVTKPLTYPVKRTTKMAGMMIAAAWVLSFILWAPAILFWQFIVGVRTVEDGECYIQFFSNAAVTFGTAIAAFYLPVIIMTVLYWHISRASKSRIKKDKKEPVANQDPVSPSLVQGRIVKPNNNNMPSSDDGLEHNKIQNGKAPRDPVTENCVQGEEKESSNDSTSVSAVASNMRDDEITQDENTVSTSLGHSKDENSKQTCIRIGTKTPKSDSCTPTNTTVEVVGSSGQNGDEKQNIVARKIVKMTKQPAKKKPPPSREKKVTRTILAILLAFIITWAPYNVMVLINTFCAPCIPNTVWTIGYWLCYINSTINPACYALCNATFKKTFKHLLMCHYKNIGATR
Method: A. Blockade of Agonist-Mediated [^35S]GTPγS Binding
The functional potency of a test compound was determined by measuring the ability of the compound to block oxotremorine-stimulated [^35S]GTPγS binding in CHO-K1 cells expressing the hM2 receptor.
At the time of use, frozen membranes were thawed and then diluted in assay buffer with a final target tissue concentration of 5-10 μg protein per well. The membranes were briefly homogenized using a Polytron PT-2100 tissue disrupter and then added to the assay plates.
The assay plates were then incubated at 37° C. for 60 minutes. The assay plates were filtered over 1% BSA-pretreated GF/B filters using a PerkinElmer 96-well harvester. The plates were rinsed with ice-cold wash buffer for 3×3 seconds and then air or vacuum dried. Microscint-20 scintillation liquid (50 μL) was added to each well, and each plate was sealed and radioactivity counted on a Topcounter (PerkinElmer). Data were analyzed by nonlinear regression analysis with the GraphPad Prism Software package (GraphPad Software, Inc., San Diego, Calif.) using the non-linear regression, one-site competition equation. The Cheng-Prusoff equation was used to calculate the Ki, using the IC50 values of the concentration-response curve for the test compound and the oxotremorine concentration in the assay as the KD and [L], ligand concentration, respectively.

cM5 receptor = target: T2, cM5 receptor (Pan troglodytes, UniProt Q5IS53); assay: Blockade of agonist-mediated calcium release via FLIPR assay (cM5); format: cell-based, chimpanzee; details: CHO cells stably expressing cM5
T2 construct: expressed in transfected cells
T2 sequence (Q5IS53 1-532): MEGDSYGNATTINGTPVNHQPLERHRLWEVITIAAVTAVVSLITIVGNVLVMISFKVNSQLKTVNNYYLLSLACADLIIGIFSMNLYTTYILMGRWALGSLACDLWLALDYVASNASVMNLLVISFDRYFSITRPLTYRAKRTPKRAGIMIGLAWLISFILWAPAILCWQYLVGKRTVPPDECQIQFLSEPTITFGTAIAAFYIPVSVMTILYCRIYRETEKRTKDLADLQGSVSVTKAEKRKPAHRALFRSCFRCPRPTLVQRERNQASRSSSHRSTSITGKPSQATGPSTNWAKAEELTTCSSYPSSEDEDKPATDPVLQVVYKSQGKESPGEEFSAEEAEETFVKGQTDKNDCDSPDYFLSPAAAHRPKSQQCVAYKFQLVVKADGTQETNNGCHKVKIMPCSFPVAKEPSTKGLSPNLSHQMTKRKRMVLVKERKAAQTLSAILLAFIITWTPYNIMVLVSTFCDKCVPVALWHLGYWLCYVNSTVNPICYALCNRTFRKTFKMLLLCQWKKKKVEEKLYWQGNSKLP
Source text: B. Blockade of Agonist-Mediated Calcium Release Via FLIPR Assays
Muscarinic receptor subtypes (M1, M3 and M5 receptors), which couple to Gq proteins, activate the phospholipase C (PLC) pathway upon agonist binding to the receptor. As a result, activated PLC hydrolyzes phosphatyl inositol diphosphate (PIP2) to diacylglycerol (DAG) and phosphatidyl-1,4,5-triphosphate (IP3), which in turn generates calcium release from intracellular stores, i.e., endoplasmic and sarcoplasmic reticulum. […] This fluorescence event is measured in real time by the FLIPR, which detects the change in fluorescence from a monolayer of cells cloned with human M1 and M3, and chimpanzee M5 receptors. Antagonist potency can be determined by the ability of antagonists to inhibit agonist-mediated increases in intracellular calcium. […]
To determine antagonist potency, the dose-dependent stimulation of intracellular Ca^2+ release for oxotremorine was first determined so that antagonist potency can later be measured against oxotremorine stimulation at an EC90 concentration. […]
The parameters used for the FLIPR were: exposure length of 0.4 seconds, laser strength of 0.5 watts, excitation wavelength of 488 nm, and emission wavelength of 550 nm. Baseline was determined by measuring the change in fluorescence for 10 seconds prior to addition of agonist. […]

β2 adrenergic receptor [1] = target: T3, β2 adrenergic receptor (Homo sapiens, UniProt P07550); assay: Radioligand binding assay for human β2 adrenergic receptor; parameters: expressed in transfected cells; details: radioligand displacement, CHO cell membranes
T3 sequence (P07550 whole entry): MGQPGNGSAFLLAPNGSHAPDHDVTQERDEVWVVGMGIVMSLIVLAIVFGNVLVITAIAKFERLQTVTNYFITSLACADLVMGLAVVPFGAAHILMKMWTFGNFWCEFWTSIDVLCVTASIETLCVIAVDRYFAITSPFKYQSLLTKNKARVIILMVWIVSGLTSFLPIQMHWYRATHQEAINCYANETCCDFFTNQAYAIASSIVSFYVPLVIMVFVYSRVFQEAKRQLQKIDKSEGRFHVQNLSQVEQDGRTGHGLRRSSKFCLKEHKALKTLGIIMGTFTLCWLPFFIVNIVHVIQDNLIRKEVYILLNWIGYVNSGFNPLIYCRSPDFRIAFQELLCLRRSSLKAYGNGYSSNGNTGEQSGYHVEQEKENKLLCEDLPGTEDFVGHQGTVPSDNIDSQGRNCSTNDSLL
Method: The cell monolayer was lifted with 2 mM EDTA in PBS. […] All membranes were stored frozen in aliquots at −80° C. or used immediately.

β2 adrenergic receptor [2] = target: T3, β2 adrenergic receptor; assay: Whole-cell cAMP Flashplate assay in CHO cell lines heterologously expressing human β2 adrenergic receptor; format: cell-based; parameters: expressed in transfected cells; details: CHO-K1 cells expressing cloned human β2
Method: Cells were rinsed with PBS and detached in dPBS (Dulbecco's Phosphate Buffered Saline, without CaCl2 and MgCl2) containing 2 mM EDTA or Trypsin-EDTA solution (0.05% trypsin/0.53 mM EDTA). […] Test compounds (10 mM in DMSO) were diluted into PBS containing 0.1% BSA in Beckman Biomek-2000 and tested at 11 different concentrations ranging from 100 μM to 1 pM. […] Data were analyzed by nonlinear regression analysis with the GraphPad Prism Software package (GraphPad Software, Inc., San Diego, Calif.) with the sigmoidal equation.

COc1cc(NC(=O)CCN2CCC(OC(=O)Nc3ccccc3-c3ccccc3)CC2)c(Cl)cc1CNC[C@H](O)c1ccc(O)c2[nH]c(=O)ccc12 [compound of formula I, biphenyl-2-ylcarbamic acid 1-[2-(2-chloro-4-{[(R)-2-hydroxy-2-(8-hydroxy-2-oxo-1,2-dihydroquinolin-5-yl)ethylamino]methyl}-5-methoxyphenylcarbamoyl)ethyl]piperidin-4-yl ester]
< 10 nM: Ki (hM2 receptor) | Ki (cM5 receptor) | Ki (β2 adrenergic receptor [1]) | EC50 (β2 adrenergic receptor [2])
